{
  "source": "patent US11242337B2",
  "about": "“Compounds useful for treating gastrointestinal tract disorders” (Ardelyx, Inc., priority 2017, dated 2022)",
  "tested_on": "gastrointestinal transit",
  "experiment": "Restoration of gastrointestinal motility in opioid induced constipation (loperamide)",
  "type": "in vivo, mice",
  "settings": "vehicle orally, loperamide (0.3 to 6 mg/kg) subcutaneously, 30-minute period",
  "method": "Approximately eight-week old, female, CD1 […] are purchased from Envigo (Livermore, Calif.), are housed 4 per cage and acclimated for at least 48 hours before study initiation. Animals are fed standard laboratory rodent chow Harlan Teklad Global 2018 (Madison, Wis.). Animals have ad libitum access to food and water for the duration of the acclimation period and are maintained in a temperature and humidity controlled room on a standard light/dark cycle of 6 AM to 6 PM. Following an overnight fast, with free access to water, animals are dosed by oral gavage with varying doses of test compound or vehicle (3 mM HCl, 0.01% Tween80), at a dose volume of 5 mL/kg. […] For an individual animal, the length travels by the Evans Blue dye front is divided by the length of the whole small intestine, measured from the pylorus to the cecum, and multiplied by 100, to provide the distance of the small intestine travelled by the dye as a percentage.",
  "data": [
    {"compound": "CN(C)C(=O)C(CCN1CCC(O)(c2ccc(Cl)cc2)CC1)(c1ccccc1)c1ccccc1", "note": "[loperamide, reference compound]", "values": [
      {"measurement": "length of the small intestine travelled by the Evans Blue dye front", "result": "~25", "unit": "%"}
    ]}
  ]
}
